Laboratory results published in patent US20250009748A1 (NAVIRE PHARMA, INC., priority 2021, published 2025).
Entries after “also recorded” stand apart in the source; their conditions may differ.

Tests used:
[1] = system: NCI-H358 subcutaneous tumors (human NSCLC, KRAS G12C); experiment: NCI-H358 subcutaneous xenograft efficacy study, formula (10b) and Compound A (Example 1); format: in vivo, NOD/SCID mice; conditions: for Day 21 TGI: n = 8
Excerpt: Cell lines. The NCI-H358 cell line was purchased from ATCC. It is a human NSCLC cell line, harboring heterozygous mutation of KRAS G12C.
Test animals. Female NOD/SCID mice (Beijing Anikeeper Biotech Co., Ltd) were utilized in this experiment. Animals were 6˜8 weeks of age at the time of xenograft implantation. The protocol and any amendment(s) or procedures involving the care and use of animals in this study was reviewed and approved by the Institutional Animal Care and Use Committee (IACUC) of Crown Bioscience Ltd. prior to execution. During the study, the care and use of animals was conducted in accordance with the regulations of the Association for Assessment and Accreditation of Laboratory Animal Care (AAALAC).
In vivo modeling, treatment and data analysis.
When the average tumor volume reached 250 mm^3, mice were randomized into groups of 8 based on both tumor volume and body weight.
Tumor volume was measured twice a week.
Day 0 was the day before treatment started.
Ti and Ci are the mean tumor volumes of the treatment and vehicle groups on the measurement day, respectively; C0 is the mean tumor volume of the vehicle group on day 0.
Tumor volume was monitored bi-weekly by caliper and body weights were recorded. Data presented in FIGS. 1A-1E represent mean±SEM, and N=8 mice/group for FIGS. 1B-1E and N=10 mice/group for FIG. 1A.

[2] = Tolerability / body weight in NCI-H2122 study (Example 2)
Experimental: Body weights (BW) were also recorded twice weekly. […] Mean body weight changes (±SEM) were recorded for group.
Experimental Endpoints. Animal health was monitored at least twice weekly through behavioral observations and weight checks. After tumor inoculation, the animals were checked daily for morbidity and mortality. During routine monitoring, the animals were checked for any effects of tumor growth and treatments on behavior such as mobility, food and water consumption, body weight gain/loss, eye/hair matting, and any other abnormalities.
Study endpoint was defined when animals reached one of the following criteria for euthanasia: ≥20% body weight loss at any time versus day 1, ≥15% body weight loss for 72 hours versus day 1, individual tumor volume of ≥3000 mm^3, or all mice in each group were euthanized when the mean tumor volume reached ≥2000 mm^3.

[3] = system: NCI-H2122 subcutaneous cell line-derived tumors (NSCLC, KRAS G12C, KEAP1, STK11); experiment: NCI-H2122 subcutaneous cell line-derived xenograft, formula (10b) and sotorasib (Example 2); format: in vivo, BALB/c nude mice; conditions: Day 21, n = 10; for TGI: Formula (10b) 100 mg/kg QD PO
Excerpt: (§1) Tumor Cell Line Culture. […] Passage 9 NCI-H358 cells were thawed and expanded, and passage 13 cells were harvested for inoculations. […] Passage 6 NCI-H2122 cells were thawed and expanded, and passage 14 cells were harvested for inoculations.
(§2) Animal Inoculations and Randomization. All experiments were reviewed and approved by the Crown Bioscience, Inc., Institutional Animal Care and Use Committee (IACUC) prior to execution and performed in accordance with the regulations of the Association for Assessment and Accreditation of Laboratory Animal Care (AAALAC). […] Mice were randomized into four groups (10 mice/group) by tumor volume (size mm^3) 13 days post cell inoculation when the mean tumor volume was 160 mm^3. […] Mice were randomized into four groups (10 mice/group) by tumor volume (size mm^3) 9 days post cell inoculation when the mean tumor volume was 180 mm^3.
(§3) Tumor and Body Weight Measurements. […] Dosing as well as tumor and body weight measurements were conducted in a Laminar flow cabinet.
(§4) Statistical analyses. Statistical analyses were performed with GraphPad Prism software (version 9). For statistical analyses comparing the vehicle group to all other groups, two-way repeated-measures analysis of variance (ANOVA) followed by post hoc Tukey's multiple comparisons test of the means was applied over the indicated number of days. For statistical analyses comparing the monotherapy and combination groups, two-way repeated-measures ANOVA was performed between each monotherapy group mean and combination group mean over the number of indicated days. A p value of less than 0.05 was considered statistically significant.

[4] = system: NCI-H358 subcutaneous cell line-derived tumors (NSCLC, KRAS G12C); experiment: NCI-H358 subcutaneous cell line-derived xenograft, formula (10b) and sotorasib (Example 2); format: in vivo, NOD/SCID mice; conditions: Day 29, n = 10; for Mean Tumor REG: Formula (10b) 100 mg/kg QD PO
Excerpt: as §1, §2, §3, §4
Female NOD/SCID mice were implanted subcutaneously with NSCLC NCI-H358 tumor cells. […] Mouse tumor volumes were measured twice weekly until day 34 and results are shown through day 29.

[5] = LC-MS/MS plasma concentration of formula (10b) and Compound A at end of efficacy study (Example 1); format: in vivo, NOD/SCID mice; conditions: for concentration at 8 h / concentration at 2 h: NOD/SCID, mouse, plasma, oral; for concentration at 2 h: Compound A Plasma concentration
Excerpt: Blood collection for pharmacokinetic analysis. Blood from live animals for pharmacokinetic (PK) analyses was obtained via the retro-orbital sinus. The mouse was grasped firmly behind the ears and rotated slightly to one side so that a disposable, sterile microcapillary tube could be inserted behind the eyeball and gently rotated to break the sinus cavity. Blood flowed through the capillary tube, directly into a K2 EDTA tube (Jiangsu KangJian Medical Apparatus Corporation #044022) to a volume of 100 μL. Blood in the tube was inverted several times to distribute the EDTA evenly. To separate plasma, tubes were centrifuged in a bench top centrifuge (Eppendorf, Model 5424R) for 5 minutes at 8000 rpm without braking. The supernatant (plasma) was carefully transferred to a microcentrifuge tube and placed onto dry ice prior to storage at −80° C.
For plasma sample analysis, 20 μL of each sample was precipitated with 200 μL of acetonitrile containing Glipizide (100 ng/mL) as an internal standard. This suspension was vortexed for 1 min and centrifuged at 4,000 rpm for 10 min, after which 80 μL of the extract was aliquoted for LC-MS/MS analysis. LC-MS/MS analysis was conducted on a Shimadzu Nexera UHPLC system coupled with a Sciex 6500 TQ-S triple quadrupole mass spectrometer (MS/MS) operated at the positive mode (ESI+). […] The injection volume was 2 μL. The LC mobile phase A was 0.025% formic acid-water containing 1 mM ammonium acetate and B was 100% methanol containing 5 mM ammonium acetate. The gradient (% B) was 2% (0-0.4 min), 2-65% ([…]), 65-90% (0.7 to 1.3 min), 90% (1.3-1.9 min), 90-2% (1.9 to 1.91 min), 2% (1.91-2.5 min). The flow rate was 0.6 mL/min. The column temperature was 60° C.

[6] = Tolerability (body weight, mouse loss) in NCI-H358 xenograft study (Example 1); conditions: for Mean body weight change: Day 29, n = 10; for Mouse loss and observations: n = 8 mice/group
Experimental: Dosing started ˜2 weeks post the subcutaneous implantation of the tumor cells. […] Tumor volume was measured twice a week. The body weight and tumor volume were captured in the StudyDirector software version 3.1.399.19 (StudyLog).
Data were analyzed using Microsoft Excel and GraphPad Prism 8.0. Day 0 was the day before treatment started.
BWi and BW0 are the body weight of an individual mouse on measurement day I and on day 0, respectively.

Cc1c(N2CCC3(CC2)CO[C@@H](C)[C@H]3N)nc(C)n(-c2cccc(Cl)c2Cl)c1=O (atropisomer, axis not shown; (Ra)) [Formula (10b), 6-((3S,4S)-4-amino-3-methyl-2-oxa-8-azaspiro[4.5]decan-8-yl)-3-(Ra)-(2,3-dichlorophenyl)-2,5-dimethylpyrimidin-4(3H)-one]
Mean tumor regression ([1]; Day 29, Formula (10b) 100 mg/kg QD PO, n = 10, FIG. 1A): 14% | Number of regressions ([1]; Day 29, Formula (10b) 100 mg/kg QD, n = 10): 8/10 | Day 21 TGI ([1]; Formula (10b) 50 mg/kg QD PO): 46% | Day 21 TGI ([1]; Formula (10b) 50 mg/kg QD PO, listed as formula (10b)): 46% | Day 21 TGI ([1]; Formula (10b) 100 mg/kg QD PO): 89% | Day 21 TGI ([1]; Formula (10b) 100 mg/kg QD PO, listed as formula (10b)): 89% | effect on growth of NCI-H358 tumors (in words) ([1]; formula (10b) monotherapy at 100 mg/kg QD): approximately tumor stasis | body weight loss ([2]; formula (10b) 100 mg/kg QD monotherapy, several mice, group placed on diet gel day 11-21): over 10% | Mean Tumor Volume (±SEM) ([3]; Formula (10b) 100 mg/kg QD PO day 1-21): 590 (±48) mm^3 | TGI [3]: 58% | TGI ([3]; listed as formula (10b)): 58% | Mean Tumor Volume (±SEM) ([4]; Formula (10b) 100 mg/kg QD PO day 1-28): 138 (±17) mm^3 | Mean Tumor REG [4]: 14% | Mean Tumor REG ([4]; listed as formula (10b)): 14% | Formula (10b) Plasma concentration ([5]; 8 hours after final dose of formula (10b), Formula (10b) 50 mg/kg QD, mean ± SD, N = 4): 4.44 ± 1.05 µM | Formula (10b) Plasma concentration ([5]; 8 hours after final dose of formula (10b), Formula (10b) 100 mg/kg QD, mean ± SD, N = 4): 7.54 ± 1.60 µM | Compound A Plasma concentration ([5]; Formula (10b) 50 mg/kg QD alone, BQL = below quantitation limit (3 nM)): BQL | Compound A Plasma concentration ([5]; Formula (10b) 100 mg/kg QD alone, BQL = below quantitation limit (3 nM)): BQL | concentration at 8 h ([5]; 50 mg/kg, 8 hours after final dose of formula (10b), Formula (10b) 50 mg/kg QD, mean ± SD, N = 4): 4.4 µM | concentration at 8 h ([5]; 100 mg/kg, 8 hours after final dose of formula (10b), Formula (10b) 100 mg/kg QD, mean ± SD, N = 4): 7.5 µM | Mean body weight change ([6]; Formula (10b) 100 mg/kg QD): −6.5% | Mouse loss and observations ([6]; Formula (10b) 50 mg/kg QD, each event = one mouse, BWL = body weight loss): Day 3 (BWL); also recorded: Day 12 (BWL); also recorded: Day 19 (BWL) | Mouse loss and observations ([6]; Formula (10b) 100 mg/kg QD, each event = one mouse): Day 18 (Found dead); also recorded: Day 21 (Found dead)

C=CC(=O)N1CCN(c2nc(=O)n(-c3c(C)ccnc3C(C)C)c3nc(-c4c(O)cccc4F)c(F)cc23)[C@@H](C)C1 [Compound A, 6-fluoro-7-(2-fluoro-6-hydroxyphenyl)-1-[4-methyl-2-(propan-2-yl)pyridin-3-yl]-4-[(2S)-2-methyl-4-(prop-2-enoyl)piperazin-1-yl]pyrido[2,3-d]pyrimidin-2(1H)-one, reference compound]
Compound A Plasma concentration ([5]; 2 hours after final dose of Compound A, Compound A 30 mg/kg QD, mean ± SD, N = 4, 30 mg/kg): 2.02 ± 0.31 µM | Compound A Plasma concentration ([5]; 2 hours after final dose of Compound A, Compound A 100 mg/kg QD, mean ± SD, N = 4, 100 mg/kg): 8.77 ± 7.25 µM | Formula (10b) Plasma concentration ([5]; Compound A 30 mg/kg QD alone, BQL = below quantitation limit (3 nM)): BQL | Formula (10b) Plasma concentration ([5]; Compound A 100 mg/kg QD alone, BQL = below quantitation limit (3 nM)): BQL | concentration at 2 h ([5]; 30 mg/kg, 2 hours after final dose of Compound A, Compound A 30 mg/kg QD, mean ± SD, N = 4): 2 µM | concentration at 2 h ([5]; 100 mg/kg, 2 hours after final dose of Compound A, Compound A 100 mg/kg QD, mean ± SD, N = 4): 8.8 µM | Mouse loss and observations ([6]; Compound A 30 mg/kg QD): None | Mouse loss and observations ([6]; Compound A 100 mg/kg QD, dosing day of removal): None | Mean body weight change ([6]; Compound A 10 mg/kg QD): −0.3%

C=CC(=O)N1CCN(c2nc(=O)n(-c3c(C)ccnc3C(C)C)c3nc(-c4c(O)cccc4F)c(F)cc23)[C@@H](C)C1 [Sotorasib, reference compound]
tolerability / impact on body weights ([2]; sotorasib 100 mg/kg QD monotherapy, FIG. 3B): well tolerated
